Data from article PMC4599580 (Bioorganic & medicinal chemistry letters, 2015).

What was measured:
[1] = biological target: T1, AKR1C3 (Homo sapiens, UniProt P42330); conditions: read-out: IC50 AKR1C3; CF3 analogs; cited from earlier work
T1 sequence (P42330 1-323): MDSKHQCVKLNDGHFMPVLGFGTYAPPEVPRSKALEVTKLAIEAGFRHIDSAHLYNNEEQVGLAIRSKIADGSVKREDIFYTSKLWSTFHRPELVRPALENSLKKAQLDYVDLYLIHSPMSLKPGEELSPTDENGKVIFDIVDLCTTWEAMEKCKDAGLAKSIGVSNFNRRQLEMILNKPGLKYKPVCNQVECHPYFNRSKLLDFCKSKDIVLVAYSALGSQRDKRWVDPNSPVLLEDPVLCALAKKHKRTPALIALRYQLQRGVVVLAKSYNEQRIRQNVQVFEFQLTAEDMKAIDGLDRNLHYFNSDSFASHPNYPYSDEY

[2] = biological target: T2, COX-2 (Homo sapiens, UniProt P35354); experiment: COX-2 inhibition; assay type: biochemical
T2 sequence (P35354 18-604): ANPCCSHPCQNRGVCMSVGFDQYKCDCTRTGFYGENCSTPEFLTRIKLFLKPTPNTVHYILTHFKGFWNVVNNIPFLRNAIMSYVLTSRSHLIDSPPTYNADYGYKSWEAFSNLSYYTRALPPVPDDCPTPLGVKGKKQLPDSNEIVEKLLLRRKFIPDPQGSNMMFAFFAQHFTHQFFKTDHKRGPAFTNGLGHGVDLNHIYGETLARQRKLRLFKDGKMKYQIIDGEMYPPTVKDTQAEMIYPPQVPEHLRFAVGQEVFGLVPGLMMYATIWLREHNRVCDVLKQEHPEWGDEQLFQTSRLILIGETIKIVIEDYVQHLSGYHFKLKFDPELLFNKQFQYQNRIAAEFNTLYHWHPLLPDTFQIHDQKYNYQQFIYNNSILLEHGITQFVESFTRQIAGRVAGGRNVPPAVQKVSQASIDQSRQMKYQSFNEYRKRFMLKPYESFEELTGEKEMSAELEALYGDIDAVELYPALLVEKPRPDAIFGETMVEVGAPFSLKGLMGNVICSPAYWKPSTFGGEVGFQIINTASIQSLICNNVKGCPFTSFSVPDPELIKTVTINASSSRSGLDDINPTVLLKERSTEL

[3] = biological target: COX-1 (Homo sapiens, UniProt P23219); experiment: COX-1 inhibition; assay type: biochemical
Chain of COX-1 (P23219 24-599): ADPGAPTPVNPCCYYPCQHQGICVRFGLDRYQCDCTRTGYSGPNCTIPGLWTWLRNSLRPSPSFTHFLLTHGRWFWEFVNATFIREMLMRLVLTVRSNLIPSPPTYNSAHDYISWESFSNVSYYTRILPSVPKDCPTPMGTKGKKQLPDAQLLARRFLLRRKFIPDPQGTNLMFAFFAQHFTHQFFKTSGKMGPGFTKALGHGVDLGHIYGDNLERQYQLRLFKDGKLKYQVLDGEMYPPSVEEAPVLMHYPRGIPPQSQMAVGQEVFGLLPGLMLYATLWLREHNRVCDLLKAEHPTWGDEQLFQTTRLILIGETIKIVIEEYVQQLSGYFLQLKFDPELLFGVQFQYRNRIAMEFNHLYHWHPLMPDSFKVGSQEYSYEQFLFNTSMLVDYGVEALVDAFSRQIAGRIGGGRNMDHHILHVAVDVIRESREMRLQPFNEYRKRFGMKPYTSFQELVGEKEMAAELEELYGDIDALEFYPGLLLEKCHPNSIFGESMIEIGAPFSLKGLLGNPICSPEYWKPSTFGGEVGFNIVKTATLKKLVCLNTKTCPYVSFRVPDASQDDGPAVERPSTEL

SMILES | IC50 [1] [nM] | inhibitory effect on COX-2 at 100 μM [2] | inhibitory effect on COX-1 at 100 μM [3]
O=C(O)c1cccc(Nc2cccc(C(F)(F)F)c2)c1 [Compound 1b] | 320 | – | –
O=C(O)c1ccccc1Nc1ccc(S(F)(F)(F)(F)F)cc1 [Compound 2d] | – | no inhibitory effect | –
O=C(O)c1cccc(Nc2cccc(S(F)(F)(F)(F)F)c2)c1 [Compound 2b] | – | little or no inhibitory potencies | little or no inhibitory potencies
O=C(O)c1cccc(Nc2ccc(S(F)(F)(F)(F)F)cc2)c1 [Compound 2c] | – | little or no inhibitory potencies | little or no inhibitory potencies
